Molecules are shown by their SMILES.

In data set [1] the test system is normal human melanocytes (NHMs). Nature of the data set: Cell growth rate in normal human melanocytes treated with carvedilol. Type of data set: cell-based. Particulars: cultured for 5 days (FIG. 1A). As for the experimental part: (§1) NHMs were treated with carvedilol at each concentration of 2 μM, 4 μM, 6 μM, 8 μM and 10 μM, cultured for 5 days, and then a cell growth rate, melanogenesis activity, tyrosinase activity, and the expression of a melanin synthesis-related protein were confirmed.

Data set [2] has the same test system. Nature of the data set: Melanin production (melanogenesis activity) in NHMs. The format is cell-based. The settings on record: carvedilol 2-10 μM, 5 days (FIG. 1B). As for the experimental part: as §1
The subject of the next data set is tyrosinase. Nature of the data set: Tyrosinase activity in NHMs. The format is cell-based, human. The settings on record: carvedilol 2-10 μM, 5 days (FIG. 1C). As for the experimental part: as §1
Data set [3] relates to melanin synthesis-related protein. Nature of the data set: Expression of melanin synthesis-related protein in NHMs. The format is cell-based, human. The settings on record: according to carvedilol treatment time (FIG. 1D). An excerpt:
[…], and then a cell growth rate, melanogenesis activity, tyrosinase activity, and the expression of a melanin synthesis-related protein were confirmed.

The test system of data set [4] is mouse melanocytes (mel-ab). Nature of the data set: Cell growth rate in mouse melanocytes (mel-ab). Type of data set: cell-based. The settings on record: up to 8 μM carvedilol (FIG. 2A). The source says: (§2) In addition to the result of Example 1 showing whitening activity in NHMs, the melanin inhibitory effect was confirmed by treating mouse melanocytes (mel-ab) with carvedilol.

The test system of data set [5] is mouse melanocytes (mel-ab). Nature of the data set: Melanin production in mouse melanocytes (mel-ab). The format is cell-based. Particulars: carvedilol by concentration (FIG. 2B).
From the text: as §2

The subject of data set [6] is cAMP/PKA/CREB signaling pathway. Briefly: Phospho-CREB and phospho-ERK expression in FSK-stimulated NHMs. The format is cell-based, human. The settings on record: over time (FIG. 1D). As for the experimental part:
After NHMs were stimulated with FSK and treated with carvedilol, the expression levels of phospho-CREB and phospho-ERK were measured, and an intracellular signaling pathway which regulates MITF transcription was investigated.

A further data set relates to FSK-stimulated NHMs. Briefly: Melanin production in FSK-stimulated NHMs. Type of data set: cell-based, human. The settings on record: NHMs after FSK treatment (FIG. 3A).
In the next data set the test system is MITF. Nature of the data set: MITF mRNA expression in NHMs. The format is cell-based, human.
In data set [7] the test system is ex-vivo model of human skin tissue. Briefly: Ex-vivo human skin tissue model stimulated by UV irradiation. The source says:
To examine adaptation in actual clinical practice, an ex-vivo model of human skin tissue was stimulated by UV irradiation to induce melanin synthesis, and treated with carvedilol and cultured, and then a fragment was formed and subjected to Fontana-Masson staining.

As to `COc1ccccc1OCCNCC(O)COc1cccc2[nH]c3ccccc3c12` (centres unmarked) [carvedilol], the cell growth rate result in data set [1] (10 μM carvedilol) is “slightly reduced”; in data set [1] (up to 8 μM carvedilol) it was “no effect”; in data set [4], “no effect”. The melanin production entry is “inhibited” in [2], “effect of inhibiting melanin production” in data set [5] and “inhibits melanin production” with FSK-stimulated NHMs. Besides, the tyrosinase activity result in the data set with tyrosinase was “inhibited”. Further, the “expression of a melanin synthesis-related protein” value in [3] is “tends to decrease over time”. Also, the phospho-CREB expression entry in data set [6] is given as “reduced over time”. For the same molecule, in data set [6], the phospho-ERK expression result is listed as “no change”. Also, the “mRNA level of MITF” value with MITF (two hours after carvedilol treatment (FIG. 3C)) was “maximally decreased”. In addition, in data set [7] (UV-irradiated ex-vivo human skin, carvedilol treated (FIG. 4A)), the “melanosome level (Fontana-Masson staining)” value was “melanosome reduction”. Also, in data set [7] (UV-irradiated ex-vivo human skin, carvedilol treated (FIG. 4B)), the “melanin index (proportion of Fontana-Masson-stained region)” value is listed as “decrease”. Further, the “melanin synthesis-related enzymes such as tyrosinase, TRP1 and DCT” value in data set [7] (UV-irradiated ex-vivo human skin, increased by UVR (FIG. 4C)) is “reduced”. The “number of Melan-A (+) cells (melanocytes)” value in [7] (ex-vivo human skin, compared to UVR alone (FIG. 4D)) was “does not affect”. Moreover, the “HMB45(+) melanocytes indicating melanocyte activity” value in data set [7] (ex-vivo human skin, increased by UVR treatment (FIG. 4E)) was “reduced”.

In the case of `C=C[C@@]1(C)CC(=O)[C@]2(O)[C@@]3(C)[C@@H](O)CCC(C)(C)[C@@H]3[C@H](O)[C@H](OC(C)=O)[C@@]2(C)O1` [FSK], in the data set with MITF (10 μM FSK for 2 hours (FIG. 3B)), the MITF transcription entry is reported as “maximally increased”.

Source of the values: patent US20250186323A1, “COMPOSITION FOR SKIN WHITENING COMPRISING CARVEDILOL” (GMEX (GLOBAL MEDICAL XYNAPSE), priority 2020, published 2025).
